In patent publication US20100285959A1, “HERBICIDAL MIXTURES” (priority 2006, published 2010):

What was measured:
[1] = system: Russian thistle (SASKR); assay: Test 21 growth chamber, postemergence; type: in vivo, Salsola kali; settings: 19 DAA
Protocol: (§1) A test was conducted to evaluate the effects on winter barley (HORVW, Hordeum vulgare L.), winter wheat (TRZAW, Triticum aestivum L.), and several weed species, of mixtures of Compound 2 with the commercial herbicide (2,4-dichlorophenoxy)acetic acid (2,4-D), an auxin mimic. […] Plants were treated postemergence at the 2-4 leaf growth stage, and each treatment was replicated one time. […] Plants were watered as needed. […] Results are from single replicates.

[2] = system: winter barley (HORVW); assay: Test 22 growth chamber, postemergence; type: in vivo, Hordeum vulgare; settings: 25 DAA
Protocol: as §1, with “species” for “species,”, “herbicides” for “herbicide”, “(2,4-D) and (4-chloro-2-methylphenoxy)acetic acid (MCPA),” for “(2,4-D), an”, “mimics.” for “mimic.”, “stage, except KCHSC, SASKR” for “stage,”, “STEME which were in the 4-8 leaf growth stage. Each” for “each”

[3] = system: winter barley (HORVW); assay: Test 23 growth chamber, postemergence; type: in vivo, Hordeum vulgare; settings: 21 DAA
Protocol: as §1, with “species” for “species,”, “herbicides” for “herbicide”, “(2,4-D) and (4-chloro-2-methylphenoxy)acetic acid (MCPA),” for “(2,4-D), an”, “mimics.” for “mimic.”, “three times.” for “one time.”, “means of the three” for “from single”

[4] = system: giant foxtail (SETFA); assay: Test 3 field trial, emerged weeds before corn planting; type: in vivo, Setaria faberi; settings: 68 DAA; Cpd 2 100, glyphosate 1540, paraquat 1150 g a.i./ha, alone or combined
Text: Corn seeds (hybrid ‘Pioneer 33J56’) were planted in early spring season, 3.8 cm deep in a silt loam soil having 2.4% organic matter and a pH of 6. Plots were 6.1 m long by 2.7 m wide with rows spaced 91.4 cm apart. The field was managed using no-till practices. […] Compound 2 and paraquat treatments, alone and in combination, also included a surfactant. Glyphosate, alone and with Compound 2, included ammonium sulfate in the treatment mixture. […] The effects on the weeds in the treated plots and untreated control plots were recorded 30, 42, 46 and 68 days after application. Most of the weed species could not be evaluated at every timing. Corn response was not evaluated because the growth was highly variable depending on the efficacy of the weed control treatments. […] Results are the means of the three replicates.

[5] = system: yellow nutsedge (CYPES); assay: Test 14 field trial, preemergence, growth as percent of control; type: in vivo, Cyperus esculentus
Text: (§2) Corn seeds (hybrid ‘Pioneer 31G96 RR’) were planted in mid spring season, 3.8 cm deep in a clay loam soil having 2% organic matter and a pH of 6.6. Plots were 6.1 m long by 3.0 m wide with rows spaced 76 cm apart. Seeds were spaced 15 cm apart within the rows. The field was managed using conventional tillage practices. […] Yellow nutsedge was only evaluated 19 and 28 days after application, and ivyleaf morningglory could only be evaluated 28 days after application. […] Results are the means of the three replicates. This growth inhibition data was converted to results in the form of “plant growth as a percent of control plant growth” using the calculation “100 minus growth inhibition”. […] For “growth as a percent of control” data, Colby's Equation calculates the expected additive effect of herbicidal mixtures having two active ingredients as follows:
(§3) Ga+b=GaGb/100 • wherein Ga+b is the growth as a percent of control of plants treated with the mixture expected from additive contribution of the individual components, • Ga is the observed growth as a percent of control of plants treated with the first active ingredient at the same use rate as in the mixture, and • Gb is the observed growth as a percent of control of plants treated with the second active ingredient at the same use rate as in the mixture. For mixtures having three active ingredients, Colby's Equation to calculate the expected additive effect of herbicidal mixtures is as follows:
(§4) Ga+b+c=GaGbGc/10,000 • wherein Ga and Gb are as defined above and • Ga+b+c is the growth as a percent of control of plants treated with the mixture expected from additive contribution of the individual components, and • Gc is the observed growth as a percent of control of plants treated with the third active ingredient at the same use rate as in the mixture. When these two forms of Colby's Equation are used, if the observed effects on weeds are less than the expected values, the mixture is synergistic.

[6] = system: ladysthumb smartweed (POLPE); assay: as above; type: in vivo, Polygonum persicaria
Text: as §2, §3, §4

[7] = system: broadleaf buttonweed (BOILF); assay: Test 12 field trial, preemergence; type: in vivo, Borreria latifolia; set-up: scale not given here; settings: Cpd 2 or Cpd 1 62 g a.i./ha, Diuron 2000 g a.i./ha
Text: In early-mid spring season, corn seeds (hybrid ‘Pioneer 3041’) were planted 5 cm deep and sugarcane nodes (variety RB-72.454) were planted 10 cm deep in separate plots in a clay soil having 2.6% organic matter and a pH of 5.6. Plots were 24 m long by 1.5 m wide with rows spaced 80 cm (corn) or 140 cm (sugarcane) apart. Corn seeds were spaced 15 cm apart and sugarcane nodes were spaced 10 cm apart within the rows. At the same time, weed seeds were broadcast over the surface of separate plots without a crop, one weed species per plot. The weed plots were rotary tilled to incorporate the weed seeds to a variety of depths. The field was managed using conventional tillage practices.

[8] = system: common lambsquarters (CHEAL); assay: Test 2 field trial, preemergence; type: in vivo, Chenopodium album; set-up: scale not given here; settings: 28 DAA
Text: Corn seeds (hybrid ‘Pioneer 31G96’) were planted in mid spring season, 3.8 cm deep in a clay loam soil having 2% organic matter and a pH of 6.6. Plots were 6.1 m long by 3.0 m wide with rows spaced 76 cm apart. Seeds were spaced 15 cm apart within the rows. The field was managed using conventional tillage practices. […] A few of the weed species could not be evaluated at every timing. […] Results are the means of the three replicates.

[9] = 2,4-D or MCPA alone 250 g a.i./ha
[10] = g a.i./ha: Cpd 2 25, Atrazine 250
[11] = g a.i./ha: Cpd 2 50, Atrazine 500
[12] = g a.i./ha: Cpd 2 75, Atrazine 750
[13] = g a.i./ha: Cpd 2 100, Atrazine 1000
[14] = g a.i./ha: Cpd 2 150, Atrazine 1500

## O=C(O)COc1ccc(Cl)cc1Cl [2,4-D, (2,4-dichlorophenoxy)acetic acid]
[1]; 2,4-D alone 125 g a.i./ha
  Postemergence SASKR Obs: 60
[1]; 2,4-D alone 250 g a.i./ha
  Postemergence SASKR Obs: 55
[2]; [9]
  Postemergence HORVW Obs: 10
[3]; [9]
  Postemergence HORVW Obs: 25

## O=C(O)CNCP(=O)(O)O [Glyphosate]
[4]
  SETFA Obs: 0%

## CCc1cccc(C)c1N(C(=O)CCl)[C@@H](C)COC [S-Metolachlor, S-metolachlor, reference compound]
[5]; 28 DAA, 1870 g a.i./ha
  Obs growth % of control: 8%
[6]; 19 DAA, 1870 g a.i./ha
  Obs growth % of control: 100%
[6]; 28 DAA, 1870 g a.i./ha
  Obs growth % of control: 53%

## Nc1nc(C2CC2)nc(C(=O)O)c1Cl [Compound 1, 6-amino-5-chloro-2-cyclopropyl-4-pyrimidinecarboxylic acid]
[7]; 15 DAA
  BOILF Obs: 70
[7]; 29 DAA
  BOILF Obs: 60
[7]; 48 DAA
  BOILF Obs: 95
[7]; 61 DAA
  BOILF Obs: 95

## CCNc1nc(Cl)nc(NC(C)C)n1 [Atrazine, atrazine, reference compound]
[8]; [10]
  CHEAL Obs: 100
[8]; [11]
  CHEAL Obs: 100
[8]; [12]
  CHEAL Obs: 100
[8]; [13]
  CHEAL Obs: 100
[8]; [14]
  CHEAL Obs: 100

## COC(=O)c1nc(C2CC2)nc(N)c1Cl [Compound 2, methyl 6-amino-5-chloro-2-cyclopropyl-4-pyrimidinecarboxylate]
[8]; [10]
  CHEAL Obs: 90
[8]; [11]
  CHEAL Obs: 100
[8]; [12]
  CHEAL Obs: 100
[8]; [13]
  CHEAL Obs: 100
[8]; [14]
  CHEAL Obs: 100
[4]
  SETFA Obs: 40%
[7]; 15 DAA
  BOILF Obs: 70
[7]; 29 DAA
  BOILF Obs: 60
[7]; 48 DAA
  BOILF Obs: 95
[7]; 61 DAA
  BOILF Obs: 100
[5]; 19 DAA, 75 g a.i./ha
  Obs growth % of control: 85%
[5]; 19 DAA, 100 g a.i./ha
  Obs growth % of control: 78%
[5]; 28 DAA, 75 g a.i./ha
  Obs growth % of control: 85%
[5]; 28 DAA, 100 g a.i./ha
  Obs growth % of control: 90%
[6]; 19 DAA, 75 g a.i./ha
  Obs growth % of control: 88%
[6]; 19 DAA, 100 g a.i./ha
  Obs growth % of control: 77%
[6]; 28 DAA, 75 g a.i./ha
  Obs growth % of control: 45%
[6]; 28 DAA, 100 g a.i./ha
  Obs growth % of control: 58%
[6]; 56 DAA, 75 g a.i./ha
  Obs growth % of control: 75%
[6]; 56 DAA, 100 g a.i./ha
  Obs growth % of control: 80%
[1]; Cpd 2 alone 16 g a.i./ha
  Postemergence SASKR Obs: 65
[2]; Cpd 2 alone 4 g a.i./ha
  Postemergence HORVW Obs: 30
[2]; Cpd 2 alone 8 g a.i./ha
  Postemergence HORVW Obs: 35
[2]; Cpd 2 alone 16 g a.i./ha
  Postemergence HORVW Obs: 40
[3]; Cpd 2 alone 4 g a.i./ha
  Postemergence HORVW Obs: 32
[3]; Cpd 2 alone 8 g a.i./ha
  Postemergence HORVW Obs: 38
[3]; Cpd 2 alone 16 g a.i./ha
  Postemergence HORVW Obs: 38
